Assay [1] has as its target purified human plasma kallikrein (Homo sapiens (Human), UniProt P03952). Description: biochemical. It is filed as biochemical. The note with it: read-out: Plasma Kallikrein Ki.
In assay [2] the target is purified human Factor XIa (Homo sapiens (Human), UniProt P03951). Description: biochemical. Format: biochemical. To be noted: read-out: Factor XIa Ki.

Where a name gives a salt, the structure may show the parent alone.

Chain of purified human plasma kallikrein (P03952 whole entry, looked up): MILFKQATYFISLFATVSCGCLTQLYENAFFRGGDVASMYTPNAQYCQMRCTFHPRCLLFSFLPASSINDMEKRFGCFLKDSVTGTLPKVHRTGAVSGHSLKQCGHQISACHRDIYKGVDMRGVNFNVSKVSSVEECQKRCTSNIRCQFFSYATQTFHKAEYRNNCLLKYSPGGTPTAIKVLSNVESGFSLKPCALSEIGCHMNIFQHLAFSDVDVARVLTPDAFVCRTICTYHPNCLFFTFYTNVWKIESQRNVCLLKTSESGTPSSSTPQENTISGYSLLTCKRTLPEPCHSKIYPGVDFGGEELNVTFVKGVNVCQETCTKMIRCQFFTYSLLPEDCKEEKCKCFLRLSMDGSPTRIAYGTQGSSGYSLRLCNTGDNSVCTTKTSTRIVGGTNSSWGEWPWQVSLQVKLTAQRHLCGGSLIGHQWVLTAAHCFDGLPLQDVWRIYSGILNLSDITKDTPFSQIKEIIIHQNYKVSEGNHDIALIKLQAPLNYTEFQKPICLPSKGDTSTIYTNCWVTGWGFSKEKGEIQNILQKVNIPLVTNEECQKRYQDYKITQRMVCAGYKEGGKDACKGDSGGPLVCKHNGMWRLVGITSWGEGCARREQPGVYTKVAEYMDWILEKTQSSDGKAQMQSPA
Chain of purified human plasma kallikrein (P03952 whole entry partner, looked up): as the sequence (P03952 whole entry, looked up) above
Chain of purified human Factor XIa (P03951 whole entry, looked up): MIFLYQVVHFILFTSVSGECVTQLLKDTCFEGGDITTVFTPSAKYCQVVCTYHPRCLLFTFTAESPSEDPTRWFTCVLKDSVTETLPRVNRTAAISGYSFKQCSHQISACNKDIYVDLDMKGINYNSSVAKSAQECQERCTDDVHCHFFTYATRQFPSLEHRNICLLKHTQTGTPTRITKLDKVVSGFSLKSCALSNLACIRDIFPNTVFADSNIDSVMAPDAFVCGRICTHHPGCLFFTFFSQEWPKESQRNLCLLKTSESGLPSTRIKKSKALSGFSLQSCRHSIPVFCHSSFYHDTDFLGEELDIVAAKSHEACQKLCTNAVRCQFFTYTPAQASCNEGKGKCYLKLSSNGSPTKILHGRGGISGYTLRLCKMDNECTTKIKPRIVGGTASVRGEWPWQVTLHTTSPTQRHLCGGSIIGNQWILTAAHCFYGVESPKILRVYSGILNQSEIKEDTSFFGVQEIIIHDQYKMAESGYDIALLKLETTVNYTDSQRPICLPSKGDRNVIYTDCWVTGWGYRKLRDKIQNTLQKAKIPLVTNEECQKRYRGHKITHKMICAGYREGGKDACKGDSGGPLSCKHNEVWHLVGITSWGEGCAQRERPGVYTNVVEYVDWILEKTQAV
Chain of purified human Factor XIa (P03951 whole entry partner, looked up): as the sequence (P03951 whole entry, looked up) above

With `COC(=O)Nc1cc2c(cc1I)-c1ccnc(c1)[C@@H](N1CCC(c3c(F)ccc(Cl)c3F)=CC1=O)CCC[C@@H](C)C(=O)N2` [Example 62, Methyl N-[(10R,14S)-14-[4-(3-chloro-2,6-difluorophenyl)-6-oxo-1,2,3,6-tetrahydropyridin-1-yl]-4-iodo-10-methyl-9-oxo-8,16-diazatricyclo[13.3.1.0^2,7]nonadeca-1(19),2,4,6,15,17-hexaen-5-yl]carbamate, TFA salt], the figures for the Ki in assay [1] and in assay [2] were 1100 nM and 196 nM, respectively.

Take `CC(=O)NC(=S)Nc1ccc2c(c1)NC(=O)[C@H](C)CCC[C@H](N1CCC(c3c(F)ccc(Cl)c3F)=CC1=O)c1cc-2ccn1` [Example 63, 3-Acetyl-1-[(10R,14S)-14-[4-(3-chloro-2,6-difluorophenyl)-6-oxo-1,2,3,6-tetrahydropyridin-1-yl]-10-methyl-9-oxo-8,16-diazatricyclo[13.3.1.0^2,7]nonadeca-1(19),2,4,6,15,17-hexaen-5-yl]thiourea]: the Ki came to 48 nM in assay [1] and 7.86 nM in assay [2].

For the compound `COC(=O)Nc1ccc2c(c1)NC(=O)[C@H](C)CCC[C@H](N1CCC(c3c(F)ccc(Cl)c3F)=C(C)C1=O)c1cc-2ccn1` [Example 64, Methyl N-[(10R,14S)-14-[4-(3-chloro-2,6-difluorophenyl)-5-methyl-6-oxo-1,2,3,6-tetrahydropyridin-1-yl]-10-methyl-9-oxo-8,16-diazatricyclo[13.3.1.0^2,7]nonadeca-1(19),2,4,6,15,17-hexaen-5-yl]carbamate, TFA salt], the Ki in assay [1] is 171 nM; in assay [2], 16.6 nM.

For the compound `C[C@@H]1CCC[C@H](n2ccc(-c3cccc(Cl)c3F)cc2=O)c2cc(ccn2)-c2ccccc2NC1=O` [Example 65, (10R,14S)-14-[4-(3-Chloro-2-fluorophenyl)-2-oxo-1,2-dihydropyridin-1-yl]-10-methyl-8,16-diazatricyclo[13.3.1.0^2,7]nonadeca-1(19),2,4,6,15,17-hexaen-9-one, TFA salt], the Ki in assay [1] stood at 53 nM; in assay [2], 47.6 nM.

In the case of `C[C@@H]1CCC[C@H](N2CCC(c3c(N)ccc(Cl)c3F)=CC2=O)c2cc(ccn2)-c2ccccc2NC1=O` [Example 66, (10R,14S)-14-[4-(6-Amino-3-chloro-2-fluorophenyl)-6-oxo-1,2,3,6-tetrahydropyridin-1-yl]-10-methyl-8,16-diazatricyclo[13.3.1.0^2,7]nonadeca-1(19),2,4,6,15,17-hexaen-9-one, TFA salt], the values for the Ki in assay [1] and in assay [2] were 45 nM and 66.6 nM, respectively.

Consider `C[C@@H]1CCC[C@H](N2CCC(c3c(F)ccc(Cl)c3F)=CC2=O)c2cc(ccn2)-c2ccc(Br)cc2NC1=O` [Example 69, (10R,14S)-5-Bromo-14-[4-(3-chloro-2,6-difluorophenyl)-6-oxo-1,2,3,6-tetrahydropyridin-1-yl]-10-methyl-8,16-diazatricyclo[13.3.1.0^2,7]nonadeca-1(19),2,4,6,15,17-hexaen-9-one, TFA salt], for which the Ki in assay [1] was 338 nM; in assay [2], 79.2 nM.

As to `C[C@@H]1CCC[C@H](N2CCC(c3c(F)ccc(Cl)c3F)=CC2=O)c2cc(cc[n+]2[O-])-c2ccc(N)cc2NC1=O` [Example 70, (10R,14S)-5-Amino-14-[4-(3-chloro-2,6-difluorophenyl)-6-oxo-1,2,3,6-tetrahydropyridin-1-yl]-10-methyl-9-oxo-8,16-diazatricyclo[13.3.1.0^2,7]nonadeca-1(19),2,4,6,15,17-hexaen-16-ium-16-olate, TFA salt], the Ki in assay [1] amounted to 18 nM; in assay [2] it was 8.02 nM.

With `C[C@@H]1CCC[C@H](N2CCC(c3cc(Cl)ccc3-n3cncn3)=CC2=O)c2cc(ccn2)-c2ccccc2NC1=O` [Example 71, (10R,14S)-14-{4-[5-Chloro-2-(1H-1,2,4-triazol-1-yl)phenyl]-6-oxo-1,2,3,6-tetrahydropyridin-1-yl}-10-methyl-8,16-diazatricyclo[13.3.1.0^2,7]nonadeca-1(19),2(7),3,5,15,17-hexaen-9-one, TFA salt], the Ki stood at 60 nM in assay [1] and 1.68 nM in assay [2].

Turning to `COC(=O)Nc1ccc2c(c1)NC(=O)[C@H](C)CCC[C@H](N1CC(C)C(c3c(F)ccc(Cl)c3F)=CC1=O)c1cc-2ccn1` (stereo partly drawn) [Example 73, Methyl N-[(10R,14S)-14-[4-(3-chloro-2,6-difluorophenyl)-3-methyl-6-oxo-1,2,3,6-tetrahydropyridin-1-yl]-10-methyl-9-oxo-8,16-diazatricyclo[13.3.1.0^2,7]nonadeca-1(19),2(7),3,5,15,17-hexaen-5-yl]carbamate, TFA salt], the Ki amounted to 6 nM in assay [1] and 0.88 nM in assay [2].

Regarding `Cc1ncn(-c2ccc(Cl)cc2C2=CC(=O)N([C@H]3CCC[C@@H](C)C(=O)Nc4ccccc4-c4ccnc3c4)CC2)n1` [Example 74, (10R,14S)-14-{4-[5-Chloro-2-(3-methyl-1H-1,2,4-triazol-1-yl)phenyl]-6-oxo-1,2,3,6-tetrahydropyridin-1-yl}-10-methyl-8,16-diazatricyclo[13.3.1.0^2,7]nonadeca-1(19),2(7),3,5,15,17-hexaen-9-one, TFA salt], the Ki in assay [1] is 238 nM; in assay [2], 40.1 nM.

With `COC(=O)Nc1ccc2c(c1)NC(=O)[C@H](C)CCC[C@H](n1ncc(-c3c(Br)ccc(Cl)c3F)cc1=O)c1cc-2ccn1` [Example 78, Methyl N-[(10R,14S)-14-[4-(6-bromo-3-chloro-2-fluorophenyl)-6-oxo-1,6-dihydropyridazin-1-yl]-10-methyl-9-oxo-8,16-diazatricyclo[13.3.1.0^2,7]nonadeca-1(19),2(7),3,5,15,17-hexaen-5-yl]carbamate, TFA salt], the results for the Ki in assay [1] and in assay [2] were 5 nM and 0.98 nM, respectively.

Take `COC(=O)Nc1ccc2c(c1)NC(=O)[C@H](C)CCC[C@H](n1ncc(-c3c(C#N)ccc(Cl)c3F)cc1=O)c1cc-2ccn1` [Example 79, Methyl N-[(10R,14S)-14-[4-(3-chloro-6-cyano-2-fluorophenyl)-6-oxo-1,6-dihydropyridazin-1-yl]-10-methyl-9-oxo-8,16-diazatricyclo[13.3.1.0^2,7]nonadeca-1(19),2(7),3,5,15,17-hexaen-5-yl]carbamate, TFA salt]: the Ki in assay [1] stood at 3 nM; in assay [2], 0.55 nM.

With `C[C@@H]1CCC[C@H](N2CCC(c3c(F)ccc(Cl)c3F)=CC2=O)c2cc(ccn2)-c2c(F)cccc2NC1=O` [Example 80, (10R,14S)-14-[4-(3-Chloro-2,6-difluorophenyl)-6-oxo-1,2,3,6-tetrahydropyridin-1-yl]-3-fluoro-10-methyl-8,16-diazatricyclo[13.3.1.0^2,7]nonadeca-1(19),2(7),3,5,15,17-hexaen-9-one, TFA salt], the Ki in assay [1] was 38 nM; in assay [2], 13.6 nM.

`C[C@@H]1CCC[C@H](N2CCC(c3c(F)ccc(Cl)c3F)=CC2=O)c2cc(ccn2)-c2cc3ccc(=O)[nH]c3cc2NC1=O` [Example 81, (14R,18S)-18-[4-(3-Chloro-2,6-difluorophenyl)-6-oxo-1,2,3,6-tetrahydropyridin-1-yl]-14-methyl-8,12,20-triazatetracyclo[17.3.1.0^2,11.0^4,9]tricosa-1(23),2,4(9),5,10,19,21-heptaene-7,13-dione, TFA salt]: the values for the Ki in assay [1] and in assay [2] were 1 nM and 0.31 nM, respectively.

Consider `Cc1[nH]c2cc3c(cc2c1C(=O)O)-c1ccnc(c1)[C@@H](N1CCC(c2c(F)ccc(Cl)c2F)=CC1=O)CCC[C@@H](C)C(=O)N3` [Example 83, (13R,17S)-17-[4-(3-Chloro-2,6-difluorophenyl)-6-oxo-1,2,3,6-tetrahydropyridin-1-yl]-6,13-dimethyl-12-oxo-7,11,19-triazatetracyclo[16.3.1.0^2,10.0^4,8]docosa-1(22),2,4(8),5,9,18,20-heptaene-5-carboxylic acid, TFA salt], for which the Ki was found to be 7 nM in assay [1] and 0.06 nM in assay [2].

In the case of `C[C@@H]1CCC[C@H](N2CCC(c3c(F)ccc(Cl)c3F)=CC2=O)c2cc(ccn2)-c2cc3c(cc2NC1=O)NC(=O)C3` [Example 84, (13R,17S)-17-[4-(3-Chloro-2,6-difluorophenyl)-6-oxo-1,2,3,6-tetrahydropyridin-1-yl]-13-methyl-7,11,19-triazatetracyclo[16.3.1.0^2,10.0^4,8]docosa-1(22),2,4(8),9,18,20-hexaene-6,12-dione, TFA salt], the Ki came to 16 nM in assay [1] and 2.68 nM in assay [2].

As to `Cc1cc2cc3c(cc2[nH]1)NC(=O)[C@H](C)CCC[C@H](N1CCC(c2c(F)ccc(Cl)c2F)=CC1=O)c1cc-3ccn1` [Example 85, (13R,17S)-17-[4-(3-Chloro-2,6-difluorophenyl)-6-oxo-1,2,3,6-tetrahydropyridin-1-yl]-6,13-dimethyl-7,11,19-triazatetracyclo[16.3.1.0^2,10.0^4,8]docosa-1(22),2,4(8),5,9,18,20-heptaen-12-one, TFA salt], the results for the Ki in assay [1] and in assay [2] were 47 nM and 9.17 nM, respectively.

`C[C@@H]1CCC[C@H](N2CCC(c3c(F)ccc(Cl)c3F)=CC2=O)c2cc(ccn2)-c2cc3c(cc2NC1=O)NC(=O)CC3` [Example 86, (14R,18S)-18-[4-(3-Chloro-2,6-difluorophenyl)-6-oxo-1,2,3,6-tetrahydropyridin-1-yl]-14-methyl-8,12,20-triazatetracyclo[17.3.1.0^2,11.0^4,9]tricosa-1(23),2(11),3,9,19,21-hexaene-7,13-dione, TFA salt]: the Ki in assay [1] is 1 nM; in assay [2], 0.72 nM.

Regarding `C[C@@H]1CCC[C@H](N2CCC(c3c(F)ccc(Cl)c3F)=CC2=O)c2cc(ccn2)-c2ccc(Nc3ccccn3)cc2NC1=O` [Example 88, (10R,14S)-14-[4-(3-Chloro-2,6-difluorophenyl)-6-oxo-1,2,3,6-tetrahydropyridin-1-yl]-10-methyl-5-[(pyridin-2-yl)amino]-8,16-diazatricyclo[13.3.1.0^2,7]nonadeca-1(19),2(7),3,5,15,17-hexaen-9-one, 2TFA salt], the Ki in assay [1] turned out to be 5 nM; in assay [2] it was 1.04 nM.

As usually defined, the Ki is a measure of affinity in units of concentration, obtained from inhibition or displacement.
